Measurements taken from US10865208B2, “ATG7 inhibitors and the uses thereof” (Millennium Pharmaceuticals, Inc., priority 2016, dated 2020).

Target: recombinant human His-ATG7 enzyme (Homo sapiens (Human), UniProt O95352)
Assay: ATG7 Enzyme Assay (HTRF/FRET, ATG3-GST and Flag-Gabarap)
Assay type: biochemical
Conditions: for inhibition at 0.111 µM: Concentration 0.111 μM, read-out: Percent Inhibition
Procedure, shortened: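 0.15 nM His-ATG7 was reacted with 5 nM ATG3-GST, 5 nM Flag-Gabarap and 10 μM ATP in HEPES pH 7.5 containing MgCl2, GSH and TCEP for 105 min at 24° C, then stopped with EDTA/KF. Eu-anti-Flag and anti-GST-APC HTRF was read after 2 h. Results are given as single-concentration % inhibition or IC50.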

Chain of recombinant human His-ATG7 enzyme (O95352 whole entry): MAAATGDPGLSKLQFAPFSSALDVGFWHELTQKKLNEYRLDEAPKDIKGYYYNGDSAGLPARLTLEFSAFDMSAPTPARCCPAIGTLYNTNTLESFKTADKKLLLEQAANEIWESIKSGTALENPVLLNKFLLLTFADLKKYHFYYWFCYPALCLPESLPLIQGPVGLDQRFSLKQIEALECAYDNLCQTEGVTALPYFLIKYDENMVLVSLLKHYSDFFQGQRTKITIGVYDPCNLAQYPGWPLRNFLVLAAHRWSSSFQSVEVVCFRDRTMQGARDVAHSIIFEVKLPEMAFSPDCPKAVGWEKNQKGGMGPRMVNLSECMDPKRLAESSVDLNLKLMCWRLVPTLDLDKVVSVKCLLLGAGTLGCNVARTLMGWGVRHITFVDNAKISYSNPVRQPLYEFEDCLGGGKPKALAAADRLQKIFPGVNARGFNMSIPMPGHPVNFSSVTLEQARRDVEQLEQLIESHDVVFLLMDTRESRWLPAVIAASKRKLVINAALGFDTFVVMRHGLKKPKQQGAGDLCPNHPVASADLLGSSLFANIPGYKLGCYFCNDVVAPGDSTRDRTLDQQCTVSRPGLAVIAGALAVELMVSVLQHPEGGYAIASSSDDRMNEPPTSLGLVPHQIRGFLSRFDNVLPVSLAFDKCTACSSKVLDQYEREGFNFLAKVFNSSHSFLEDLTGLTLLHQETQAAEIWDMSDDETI

Compound	IC50 [nM]	inhibition at 0.111 µM [%]
NC(=O)CSc1nn([C@H]2C[C@H](O)[C@@H](COS(N)(=O)=O)O2)c2ncnc(N)c12 [Compound I-159, [(2R,3S,5R)-5-{4-amino-3-[(2-amino-2-oxoethyl)sulfanyl]-1H-pyrazolo[3,4-d]pyrimidin-1-yl}-3-hydroxytetrahydrofuran-2-yl]methyl sulfamate]	100 to 500	29
Nc1ncnc2c1c(SCCO)nn2[C@H]1C[C@H](O)[C@@H](COS(N)(=O)=O)O1 [Compound I-162, [(2R,3S,5R)-5-{4-amino-3-[(2-hydroxyethyl)sulfanyl]-1H-pyrazolo[3,4-d]pyrimidin-1-yl}-3-hydroxytetrahydrofuran-2-yl]methyl Sulfamate]	100 to 500	50
Nc1ncnc2c1c(Sc1ccc3ccccc3c1)nn2[C@H]1C[C@H](O)[C@@H](COS(N)(=O)=O)O1 [Compound I-166, {(2R,3S,5R)-5-[4-amino-3-(2-naphthylsulfanyl)-1H-pyrazolo[3,4-d]pyrimidin-1-yl]-3-hydroxytetrahydrofuran-2-yl}methyl sulfamate]	100 to 500	50
Nc1ncnc2c1c(SC(F)F)nn2[C@H]1C[C@H](O)[C@@H](COS(N)(=O)=O)O1 [Compound I-169, [(2R,3S,5R)-5-{4-amino-3-[(difluoromethyl)sulfanyl]-1H-pyrazolo[3,4-d]pyrimidin-1-yl}-3-hydroxytetrahydrofuran-2-yl]methyl sulfamate]	50 to 100	57
Nc1ncnc2c1c(Sc1c[nH]c3ccccc13)nn2[C@H]1C[C@H](O)[C@@H](COS(N)(=O)=O)O1 [Compound I-170, {(2R,3S,5R)-5-[4-amino-3-(1H-indol-3-ylsulfanyl)-1H-pyrazolo[3,4-d]pyrimidin-1-yl]-3-hydroxytetrahydrofuran-2-yl}methyl sulfamate]	100 to 500	50
Nc1ncnc2c1c(C(F)(F)F)nn2[C@H]1C[C@H](O)[C@@H](COS(N)(=O)=O)O1 [Compound I-171, {(2R,3S,5R)-5-[4-amino-3-(trifluoromethyl)-1H-pyrazolo[3,4-d]pyrimidin-1-yl]-3-hydroxytetrahydrofuran-2-yl}methyl Sulfamate]	100 to 500	48
CCSc1nn([C@H]2C[C@H](O)[C@@H](COS(N)(=O)=O)O2)c2ncnc(N)c12 [Compound I-172, {(2R,3S,5R)-5-[4-amino-3-(ethylsulfanyl)-1H-pyrazolo[3,4-d]pyrimidin-1-yl]-3-hydroxytetrahydrofuran-2-yl}methyl Sulfamate]	50 to 100	68
Nc1ncnc2c1c(Sc1ccc3c(c1)OCO3)nn2[C@H]1C[C@H](O)[C@@H](COS(N)(=O)=O)O1 [Compound I-175, {(2R,3S,5R)-5-[4-amino-3-(1,3-benzodioxol-5-ylsulfanyl)-1H-pyrazolo[3,4-d]pyrimidin-1-yl]-3-hydroxytetrahydrofuran-2-yl}methyl sulfamate]	50 to 100	66
Cc1ccccc1Sc1nn([C@H]2C[C@H](O)[C@@H](COS(N)(=O)=O)O2)c2ncnc(N)c12 [Compound I-176, [(2R,3S,5R)-5-{4-amino-3-[(2-methylphenyl)sulfanyl]-1H-pyrazolo[3,4-d]pyrimidin-1-yl}-3-hydroxytetrahydrofuran-2-yl]methyl sulfamate]	100 to 500	26

Now from value to compound:

IC50 [nM]	inhibition at 0.111 µM [%]	Compound
50 to 100	56	Nc1ncnc2c1c(Sc1cccc(C(F)(F)F)c1)nn2[C@@H]1O[C@H](COS(N)(=O)=O)[C@@H](O)[C@@H]1F [Compound I-158, [(2R,3R,4S,5R)-5-(4-amino-3-{[3-(trifluoromethyl)phenyl]sulfanyl}-1H-pyrazolo[3,4-d]pyrimidin-1-yl)-4-fluoro-3-hydroxytetrahydrofuran-2-yl]methyl sulfamate]
50 to 100	62	Nc1ncnc2c1c(Sc1ccc3c(c1)CCC3)nn2[C@H]1C[C@H](O)[C@@H](COS(N)(=O)=O)O1 [Compound I-160, {(2R,3S,5R)-5-[4-amino-3-(2,3-dihydro-1H-inden-5-ylsulfanyl)-1H-pyrazolo[3,4-d]pyrimidin-1-yl]-3-hydroxytetrahydrofuran-2-yl}methyl Sulfamate]
50 to 100	59	Cc1ccc(Sc2nn([C@H]3C[C@H](O)[C@@H](COS(N)(=O)=O)O3)c3ncnc(N)c23)c(F)c1 [Compound I-161, [(2R,3S,5R)-5-{4-amino-3-[(2-fluoro-4-methylphenyl)sulfanyl]-1H-pyrazolo[3,4-d]pyrimidin-1-yl}-3-hydroxytetrahydrofuran-2-yl]methyl Sulfamate]
50 to 100	58	CC(C)(C)c1ccc(Sc2nn([C@H]3C[C@H](O)[C@@H](COS(N)(=O)=O)O3)c3ncnc(N)c23)cc1 [Compound I-163, [(2R,3S,5R)-5-{4-amino-3-[(4-tert-butylphenyl)sulfanyl]-1H-pyrazolo[3,4-d]pyrimidin-1-yl}-3-hydroxytetrahydrofuran-2-yl]methyl sulfamate]
50 to 100	70	Nc1ncnc2c1c(SC1CCC1)nn2[C@H]1C[C@H](O)[C@@H](COS(N)(=O)=O)O1 [Compound I-164, {(2R,3S,5R)-5-[4-amino-3-(cyclobutylsulfanyl)-1H-pyrazolo[3,4-d]pyrimidin-1-yl]-3-hydroxytetrahydrofuran-2-yl}methyl sulfamate]
50 to 100	62	Nc1ncnc2c1c(SCC(F)F)nn2[C@H]1C[C@H](O)[C@@H](COS(N)(=O)=O)O1 [Compound I-165, [(2R,3S,5R)-5-{4-amino-3-[(2,2-difluoroethyl)sulfanyl]-1H-pyrazolo[3,4-d]pyrimidin-1-yl}-3-hydroxytetrahydrofuran-2-yl]methyl sulfamate]
50 to 100	68	Nc1ncnc2c1c(SC1CC1)nn2[C@H]1C[C@H](O)[C@@H](COS(N)(=O)=O)O1 [Compound I-167, {(2R,3S,5R)-5-[4-amino-3-(cyclopropylsulfanyl)-1H-pyrazolo[3,4-d]pyrimidin-1-yl]-3-hydroxytetrahydrofuran-2-yl}methyl sulfamate]
20 to 50	77	Nc1ncnc2c1c(Sc1ccc3c(c1)OCC3)nn2[C@H]1C[C@H](O)[C@@H](COS(N)(=O)=O)O1 [Compound I-168, {(2R,3S,5R)-5-[4-amino-3-(2,3-dihydro-1-benzofuran-6-ylsulfanyl)-1H-pyrazolo[3,4-d]pyrimidin-1-yl]-3-hydroxytetrahydrofuran-2-yl}methyl sulfamate]
20 to 50	81	COc1ccc(F)c(Sc2nn([C@H]3C[C@H](O)[C@@H](COS(N)(=O)=O)O3)c3ncnc(N)c23)c1 [Compound I-173, [(2R,3S,5R)-5-{4-amino-3-[(2-fluoro-5-methoxyphenyl)sulfanyl]-1H-pyrazolo[3,4-d]pyrimidin-1-yl}-3-hydroxytetrahydrofuran-2-yl]methyl sulfamate]
20 to 50	73	Nc1ncnc2c1c(Sc1nccs1)nn2[C@H]1C[C@H](O)[C@@H](COS(N)(=O)=O)O1 [Compound I-174, {(2R,3S,5R)-5-[4-amino-3-(1,3-thiazol-2-ylsulfanyl)-1H-pyrazolo[3,4-d]pyrimidin-1-yl]-3-hydroxytetrahydrofuran-2-yl}methyl sulfamate]
